Assay results taken from patent US20250051327A1, “MALT-1 MODULATORS” (EXSCIENTIA AI LIMITED, priority 2020, published 2025).
Read-outs that look alike come from different tables or passages of the source.

Legend:
[1] = target: Recombinant human MALT-1 (amino acids 340-824) (Homo sapiens (Human), UniProt Q9UDY8); experiment: MALT-1 inhibition assay (fluorogenic substrate Ac-LRSR-Rh110-DP); type: biochemical; settings: recombinant human MALT-1, substrate Ac-LRSR-Rh110-DP
In short: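 MALT-1 at 3 nM final was reacted with 10 μM Ac-LRSR-Rh110-DP, with substrate addition starting the reaction. Incubation ran 60 minutes at 25° C in the dark. Percent inhibition from fluorescence across doses was fitted to a 4-parameter logistic to give IC50.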

[2] = test system: IL-2 secretion by human effector memory T cells (TEM); experiment: Effector memory T cells IL-2 release assay; type: cell-based; settings: human CD4+ effector memory T cells, CD3/CD28 bead stimulation, 24 h, read-out: CD4TC IL2 IC50
In short: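 Human CD4+ effector memory T cells from healthy-donor buffy coats were stimulated with anti-CD3/CD28 Dynabeads and exposed to 10 semi-log compound doses (0.1% DMSO) for 24 h at 37 °C. Supernatant IL-2 was measured by HTRF, and IC50 came from a 4-parameter logistic fit to maximal IL-2. Viability was checked by flow cytometry.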

Sequence of Recombinant human MALT-1 (amino acids 340-824) (Q9UDY8 340-824): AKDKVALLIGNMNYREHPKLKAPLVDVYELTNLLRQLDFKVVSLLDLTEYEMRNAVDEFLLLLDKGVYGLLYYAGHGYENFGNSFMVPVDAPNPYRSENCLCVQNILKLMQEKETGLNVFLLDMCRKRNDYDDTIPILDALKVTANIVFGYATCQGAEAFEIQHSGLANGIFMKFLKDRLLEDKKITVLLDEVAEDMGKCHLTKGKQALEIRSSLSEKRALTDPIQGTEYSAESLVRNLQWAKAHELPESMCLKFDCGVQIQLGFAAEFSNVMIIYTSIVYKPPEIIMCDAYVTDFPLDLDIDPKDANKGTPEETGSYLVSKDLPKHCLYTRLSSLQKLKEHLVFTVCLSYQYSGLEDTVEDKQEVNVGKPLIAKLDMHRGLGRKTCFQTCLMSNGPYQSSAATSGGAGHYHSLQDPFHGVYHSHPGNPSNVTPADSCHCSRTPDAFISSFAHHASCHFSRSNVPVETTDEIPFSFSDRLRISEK

Structure (SMILES) | IC50 [1] [µM] | IC50 ([2]; T-cell) [µM] | IC50 [2] [µM]
CN(C(=O)CC1CCNC1)[C@@H](c1ccc(N2CCCc3c2cnc2cc(Cl)nn32)cc1)C(F)(F)F (stereo partly drawn) [CPD0021849, N-[(1S)-1-(4-{4-chloro-2,3,7,10-tetraazatricyclo[7.4.0.0^2,6]trideca-1(9),3,5,7-tetraen-10-yl}phenyl)-2,2,2-trifluoroethyl]-N-methyl-2-(pyrrolidin-3-yl)acetamide] | 0.203 | 0.558 | 
CN(C(=O)CC1CCOC1)[C@@H](c1ccc(N2CCCc3c2cnc2cc(Cl)nn32)cc1)C(F)(F)F (stereo partly drawn) [CPD0021874, N-[(1S)-1-(4-{4-chloro-2,3,7,10-tetraazatricyclo[7.4.0.0^2,6]trideca-1(9),3,5,7-tetraen-10-yl}phenyl)-2,2,2-trifluoroethyl]-N-methyl-2-(oxolan-3-yl)acetamide] | 0.256 | 0.209 | 
CN(C(=O)CC1CCCS1(=O)=O)[C@@H](c1ccc(N2CCCc3c2cnc2cc(Cl)nn32)cc1)C(F)(F)F (stereo partly drawn) [CPD0021934, N-[(1S)-1-(4-{4-chloro-2,3,7,10-tetraazatricyclo[7.4.0.0^2,6]trideca-1(9),3,5,7-tetraen-10-yl}phenyl)-2,2,2-trifluoroethyl]-2-(1,1-dioxo-1λ^6-thiolan-2-yl)-N-methylacetamide] | 0.369 | 0.588 | 
CN(C(=O)C1CCS(=O)(=O)CC1)[C@@H](c1ccc(N2CC(C)(C)Cc3c2cnc2cc(Cl)nn32)cc1)C(F)(F)F [CPD0022149, N-[(1S)-1-(4-{4-chloro-12,12-dimethyl-2,3,7,10-tetraazatricyclo[7.4.0.0^2,6]trideca-1(9),3,5,7-tetraen-10-yl}phenyl)-2,2,2-trifluoroethyl]-N-methyl-1,1-dioxo-1λ^6-thiane-4-carboxamide] | 0.071 | 0.093 | 
CN(C(=O)[C@H]1C[C@@](C)(O)C1)[C@@H](c1ccc(N2CCCc3c2cnc2cc(Cl)nn32)cc1)C(F)(F)F [CPD0072437, (1r,3s)-N-[(1S)-1-(4-{4-chloro-2,3,7,10-tetraazatricyclo[7.4.0.0^2,6]trideca-1(9),3,5,7-tetraen-10-yl}phenyl)-2,2,2-trifluoroethyl]-3-hydroxy-N,3-dimethylcyclobutane-1-carboxamide] | 0.123 | 0.178 | 
CN(C(=O)[C@H]1C[C@H](C(=O)O)C1)[C@@H](c1ccc(N2CCCc3c2cnc2cc(Cl)nn32)cc1)C(F)(F)F [CPD0072439, (trans)-3-{[(1S)-1-(4-{4-chloro-2,3,7,10-tetraazatricyclo[7.4.0.0^2,6]trideca-1(9),3,5,7-tetraen-10-yl}phenyl)-2,2,2-trifluoroethyl](methyl)carbamoyl}cyclobutane-1-carboxylic acid] | 0.035 | 0.557 | 
CN(C(=O)[C@H]1C[C@](O)(C(F)(F)F)C1)[C@@H](c1ccc(N2CCCc3c2cnc2cc(Cl)nn32)cc1)C(F)(F)F [CPD0072441, (1s,3s)-N-[(1S)-1-(4-{4-chloro-2,3,7,10-tetraazatricyclo[7.4.0.0^2,6]trideca-1(9),3,5,7-tetraen-10-yl}phenyl)-2,2,2-trifluoroethyl]-3-hydroxy-N-methyl-3-(trifluoromethyl)cyclobutane-1-carboxamide] | 0.113 | 0.222 | 
CN(C(=O)[C@H]1CC[C@H](C(=O)O)CC1)[C@@H](c1ccc(N2CCCc3c2cnc2cc(Cl)nn32)cc1)C(F)(F)F [CPD0072442, (1r,4r)-4-{[(1S)-1-(4-{4-chloro-2,3,7,10-tetraazatricyclo[7.4.0.0^2,6]trideca-1(9),3,5,7-tetraen-10-yl}phenyl)-2,2,2-trifluoroethyl](methyl)carbamoyl}cyclohexane-1-carboxylic acid] | 0.043 | 0.3 | 
COc1ccc2ncc3c(c2n1)C(O)CCN3c1ccc([C@H](N(C)C(=O)C2CCS(=O)(=O)CC2)C(F)(F)F)cc1 (stereo partly drawn) [CPD0072449, N-methyl-1,1-dioxo-N-[(1S)-2,2,2-trifluoro-1-[4-(10-hydroxy-2-methoxy-9,10-dihydro-8H-pyrido[2,3-f][1,7]naphthyridin-7-yl)phenyl]ethyl]thiane-4-carboxamide] | 0.432 | 0.94 | 
CN(C(=O)C1CC(C(=O)O)C1)[C@@H](c1ccc(N2CCCc3c2cnc2cc(Cl)nn32)cc1)C(F)(F)F (stereo partly drawn) [CPD0072461] | 0.063 | 0.732 | 
COC(C)c1c(Nc2ccc([C@H](N(C)C(=O)C3CCS(=O)(=O)CC3)C(F)(F)F)cc2)cnn2cc(Cl)nc12 (stereo partly drawn) [CPD0072526, N-[(1S)-1-[4-[[2-chloro-8-(1-methoxyethyl)imidazo[1,2-b]pyridazin-7-yl]amino]phenyl]-2,2,2-trifluoro-ethyl]-N-methyl-1,1-dioxo-thiane-4-carboxamide] | 0.047 | 0.071 | 
COc1ccc2ncc3c(c2n1)CCCN3c1ccc([C@H](N(C)C(=O)C2CCS(=O)(=O)CC2)C(F)(F)F)cc1 [CPD0072532, N-methyl-1,1-dioxo-N-[(1S)-2,2,2-trifluoro-1-[4-(2-methoxy-9,10-dihydro-8H-pyrido[2,3-f][1,7]naphthyridin-7-yl)phenyl]ethyl]thiane-4-carboxamide] | 0.217 | 0.548 | 
CN(C(=O)[C@H]1CC[S@@](=N)(=O)CC1)[C@@H](c1ccc(N2CCC3(CC3)c3c2cnc2cc(Cl)nn32)cc1)C(F)(F)F [CPD0072772, (1rel-s,4rel-s)-N-[(1S)-1-(4-{4′-chloro-2′,3′,7′, 10′-tetraazaspiro[cyclopropane-1,13′-tricyclo[7.4.0.0^2,6]tridecane]-1′(9′),3′,5′,7′-tetraen-10′-yl}phenyl)-2,2,2-trifluoroethyl]-1-imino-N-methyl-1-oxo-1λ^6-thiane-4-carboxamide] | 0.027 | 0.027 | 
CC1CCc2c(cnc3cc(Cl)nn23)N1c1ccc([C@H](N(C)C(=O)C2CCS(=O)(=O)CC2)C(F)(F)F)cc1 (stereo partly drawn) [CPD0072805, N-[(1S)-1-{4-[(11rel-S)-4-chloro-11-methyl-2,3,7,10-tetraazatricyclo[7.4.0.0^2,6]trideca-1(9),3,5,7-tetraen-10-yl]phenyl}-2,2,2-trifluoroethyl]-N-methyl-1,1-dioxo-1λ^6-thiane-4-carboxamide] | 0.172 |  | 1.02
CC1CCc2c(cnc3cc(Cl)nn23)N1c1ccc([C@H](N(C)C(=O)C2CCS(=O)(=O)CC2)C(F)(F)F)cc1 (stereo partly drawn) [CPD0072806, N-[(1S)-1-{4-[(11rel-R)-4-chloro-11-methyl-2,3,7,10-tetraazatricyclo[7.4.0.0^2,6]trideca-1(9),3,5,7-tetraen-10-yl]phenyl}-2,2,2-trifluoroethyl]-N-methyl-1,1-dioxo-1λ^6-thiane-4-carboxamide] | 0.069 |  | 0.206

Second part, led by results:

IC50 [1] [µM] | IC50 ([2]; T-cell) [µM] | Structure (SMILES) | IC50 [2] [µM]
0.094 | 0.143 | COCC1CCN(c2ccc([C@H](N(C)C(=O)C3CCS(=O)(=O)CC3)C(F)(F)F)cc2)c2cnc3cc(Cl)nn3c21 (stereo partly drawn) [CPD0072775] | 
0.142 | 0.2 | CN(C(=O)CC1CS(=O)(=O)C1)[C@@H](c1ccc(N2CCCc3c2cnc2cc(Cl)nn32)cc1)C(F)(F)F [CPD0072798, N-[(1S)-1-(4-{4-chloro-2,3,7,10-tetraazatricyclo[7.4.0.0^2,6]trideca-1(9),3,5,7-tetraen-10-yl}phenyl)-2,2,2-trifluoroethyl]-2-(1,1-dioxo-1λ^6-thietan-3-yl)-N-methylacetamide] | 
0.095 | 0.147 | CN(C(=O)C1C2CS(=O)(=O)CC21)[C@@H](c1ccc(N2CCCc3c2cnc2cc(Cl)nn32)cc1)C(F)(F)F (stereo partly drawn) [CPD0072801, N-[(1S)-1-(4-{4-chloro-2,3,7,10-tetraazatricyclo[7.4.0.0^2,6]trideca-1(9),3,5,7-tetraen-10-yl}phenyl)-2,2,2-trifluoroethyl]-N-methyl-3,3-dioxo-3λ^6-thiabicyclo[3.1.0]hexane-6-carboxamide] | 
0.322 | 1.89 | CN(C(=O)C1CCS(=O)(=O)CC1)[C@@H](c1ccc(N2CCCc3c2cnc2cc(Cl)nn32)cc1)C(C)(F)F [CPD0072803, N-[(1S)-1-(4-{4-chloro-2,3,7,10-tetraazatricyclo[7.4.0.0^2,6]trideca-1(9),3,5,7-tetraen-10-yl}phenyl)-2,2-difluoropropyl]-N-methyl-1,1-dioxo-1λ^6-thiane-4-carboxamide] | 
0.159 | 0.307 | CN(C(=O)N1CCS(=O)(=O)CC1)[C@@H](c1ccc(N2CCCc3c2cnc2cc(Cl)nn32)cc1)C(F)(F)F [CPD0072804, N-[(1S)-1-(4-{4-chloro-2,3,7,10-tetraazatricyclo[7.4.0.0^2,6]trideca-1(9),3,5,7-tetraen-10-yl}phenyl)-2,2,2-trifluoroethyl]-N-methyl-1,1-dioxo-1λ^e-thiomorpholine-4-carboxamide] | 
0.127 | 0.237 | Cc1cc(N2CCCc3c2cnc2cc(Cl)nn32)ccc1[C@H](N(C)C(=O)C1CCS(=O)(=O)CC1)C(F)(F)F [CPD0072808, N-[(1S)-1-(4-{4-chloro-2,3,7,10-tetraazatricyclo[7.4.0.0^2,6]trideca-1(9),3,5,7-tetraen-10-yl}-2-methylphenyl)-2,2,2-trifluoroethyl]-N-methyl-1,1-dioxo-1λ^6-thiane-4-carboxamide] | 
0.031 | 0.079 | CC1CCN(c2ccc([C@H](N(C)C(=O)[C@H]3CC[S@@](=N)(=O)CC3)C(F)(F)F)cc2)c2cnc3cc(Cl)nn3c21 (stereo partly drawn) [CPD0072812] | 
0.027 | 0.061 | CC1CCN(c2ccc([C@H](N(C)C(=O)[C@H]3CC[S@](=N)(=O)CC3)C(F)(F)F)cc2)c2cnc3cc(Cl)nn3c21 (stereo partly drawn) [CPD0072813] | 
0.037 | 0.055 | CO[C@@H](C)c1c(Nc2ccc(C(N(C)C(=O)C3CCS(=O)(=O)CC3)C(F)(F)F)cc2)cnn2cc(Cl)nc12 (stereo partly drawn) [CPD0072849] | 
